Test results reported in article PMC4705464, “Sensillar expression and responses of olfactory receptors reveal different peripheral coding in two Helicoverpa species using the same pheromone components” (Scientific Reports, 2016).

Legend:
Assay in all cases: two-electrode voltage clamp, Xenopus oocytes
Type in all cases: cell-based
HarmOR14b/HarmOrco = target: T1, HarmOR14b/HarmOrco (Helicoverpa armigera, UniProt R4JUU3); conditions: agonist; 10^-4 mol/L; with HarmOrco
T1 construct: gene OR14b; full ORF in pT7Ts, cRNA co-expressed with HarmOrco in Xenopus oocytes; alignment of OR14b orthologues over 440 residues; with Odorant receptor coreceptor
T1 sequence (R4JUU3 1-440): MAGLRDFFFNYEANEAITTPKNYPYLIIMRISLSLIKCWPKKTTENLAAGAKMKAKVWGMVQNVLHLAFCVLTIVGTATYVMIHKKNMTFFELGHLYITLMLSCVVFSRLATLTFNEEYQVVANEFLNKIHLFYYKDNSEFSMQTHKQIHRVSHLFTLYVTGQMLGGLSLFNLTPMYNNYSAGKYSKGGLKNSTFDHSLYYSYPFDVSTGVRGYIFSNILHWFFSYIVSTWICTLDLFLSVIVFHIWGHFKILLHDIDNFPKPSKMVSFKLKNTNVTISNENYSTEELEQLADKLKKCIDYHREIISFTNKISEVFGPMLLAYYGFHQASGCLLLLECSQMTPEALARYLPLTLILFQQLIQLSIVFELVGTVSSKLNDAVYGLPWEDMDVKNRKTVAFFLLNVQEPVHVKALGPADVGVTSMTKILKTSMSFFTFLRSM

HassOR16/Orco = target: T2, HassOR16/Orco (Helicoverpa assulta, UniProt C6K7C1); conditions: agonist; with Orco
T2 construct: full ORF in pT7Ts, cRNA co-expressed with Orco in Xenopus oocytes; with Odorant receptor coreceptor
T2 sequence (C6K7C1 1-422): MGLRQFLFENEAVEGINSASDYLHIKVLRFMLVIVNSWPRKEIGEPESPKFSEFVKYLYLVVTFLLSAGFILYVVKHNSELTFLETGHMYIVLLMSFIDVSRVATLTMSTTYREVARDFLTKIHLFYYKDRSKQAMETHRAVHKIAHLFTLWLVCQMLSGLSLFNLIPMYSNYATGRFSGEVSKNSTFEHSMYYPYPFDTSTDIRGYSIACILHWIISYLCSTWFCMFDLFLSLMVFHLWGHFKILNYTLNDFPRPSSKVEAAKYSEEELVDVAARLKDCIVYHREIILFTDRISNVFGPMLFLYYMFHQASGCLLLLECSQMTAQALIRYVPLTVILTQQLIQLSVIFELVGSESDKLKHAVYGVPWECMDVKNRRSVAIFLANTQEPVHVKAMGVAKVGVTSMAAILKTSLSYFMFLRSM
T2 sequence (A7UGE1 1-473 partner): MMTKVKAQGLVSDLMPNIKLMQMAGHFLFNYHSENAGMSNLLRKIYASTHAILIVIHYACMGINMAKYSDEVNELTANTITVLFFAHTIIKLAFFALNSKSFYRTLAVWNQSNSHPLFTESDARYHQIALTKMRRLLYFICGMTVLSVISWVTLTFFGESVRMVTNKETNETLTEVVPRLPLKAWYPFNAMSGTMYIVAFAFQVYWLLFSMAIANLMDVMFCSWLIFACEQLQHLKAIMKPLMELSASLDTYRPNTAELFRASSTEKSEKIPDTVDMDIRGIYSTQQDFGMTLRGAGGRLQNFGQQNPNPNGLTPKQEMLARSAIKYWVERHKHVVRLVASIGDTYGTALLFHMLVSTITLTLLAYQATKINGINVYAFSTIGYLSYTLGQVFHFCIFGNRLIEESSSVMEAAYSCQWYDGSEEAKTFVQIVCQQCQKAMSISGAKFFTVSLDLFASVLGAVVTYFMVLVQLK

HassOR6/Orco = target: T3, HassOR6/Orco (Helicoverpa assulta, UniProt R4JLZ7); conditions: agonist, main ligand; with Orco
T3 construct: gene OR6; full ORF in pT7Ts, cRNA co-expressed with Orco in Xenopus oocytes; with Odorant receptor coreceptor
T3 sequence (R4JLZ7 1-425): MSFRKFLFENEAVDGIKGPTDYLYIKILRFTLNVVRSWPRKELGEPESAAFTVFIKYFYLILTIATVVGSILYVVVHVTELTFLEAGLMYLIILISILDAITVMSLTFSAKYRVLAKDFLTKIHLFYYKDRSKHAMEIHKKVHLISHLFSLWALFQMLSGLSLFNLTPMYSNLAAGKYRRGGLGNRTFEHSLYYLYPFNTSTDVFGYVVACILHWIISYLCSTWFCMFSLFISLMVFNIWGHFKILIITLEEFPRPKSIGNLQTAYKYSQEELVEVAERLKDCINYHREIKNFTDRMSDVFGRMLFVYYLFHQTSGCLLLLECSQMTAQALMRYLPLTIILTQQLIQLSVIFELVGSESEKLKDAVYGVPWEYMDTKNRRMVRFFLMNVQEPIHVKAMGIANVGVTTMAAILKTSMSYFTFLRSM
T3 sequence (A7UGE1 1-473 partner): T2 sequence (A7UGE1 1-473 partner)

HassOR13/Orco = target: T4, HassOR13/Orco (Helicoverpa assulta, UniProt A0A0B4ZYC6); conditions: agonist; with Orco
T4 construct: gene OR13; full ORF in pT7Ts, cRNA co-expressed with Orco in Xenopus oocytes; with Odorant receptor coreceptor
T4 sequence (A0A0B4ZYC6 1-425): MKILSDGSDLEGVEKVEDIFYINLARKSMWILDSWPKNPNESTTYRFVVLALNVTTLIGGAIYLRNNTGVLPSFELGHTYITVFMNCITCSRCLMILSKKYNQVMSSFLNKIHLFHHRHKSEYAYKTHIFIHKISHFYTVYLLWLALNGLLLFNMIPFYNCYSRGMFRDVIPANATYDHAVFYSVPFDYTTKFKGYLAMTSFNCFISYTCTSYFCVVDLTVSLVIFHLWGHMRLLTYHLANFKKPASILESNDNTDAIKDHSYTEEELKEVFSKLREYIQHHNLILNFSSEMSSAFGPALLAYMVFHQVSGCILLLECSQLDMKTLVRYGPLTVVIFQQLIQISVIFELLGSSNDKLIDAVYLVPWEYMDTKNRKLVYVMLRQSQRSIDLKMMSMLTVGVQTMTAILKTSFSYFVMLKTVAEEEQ
T4 sequence (A7UGE1 1-473 partner): T2 sequence (A7UGE1 1-473 partner)

CCCC/C=C\CCCCCCCC=O [Z9-14:Ald]
inward current response (HarmOR14b/HarmOrco): this receptor, when expressed in Xenopus oocytes, responds specifically to Z9-14:Ald | current response (HassOR16/Orco): HassOR13/Orco and HassOR16/Orco were narrowly tuned to Z11-16:Ald and Z9-14:Ald respectively

CCCCCC/C=C\CCCCCCCCO [Z9-16:OH]
current response (HassOR6/Orco): HassOR6/Orco responded mainly to Z9-16:OH

CCCC/C=C\CCCCCCCCCC=O [Z11-16:Ald, (Z)-11-hexadecenal]
current response (HassOR13/Orco): HassOR13/Orco and HassOR16/Orco were narrowly tuned to Z11-16:Ald and Z9-14:Ald respectively
